# How the values were obtained:
# MAGL [1] = target: T1, MAGL (Homo sapiens, UniProt Q99685); test: In vitro competitive activity-based protein profiling (human), MAGL; assay type: biochemical; conditions: for inhibition at 1 µM: 1 μM inhibitor, human proteome, 30 min preincubation at 37° C, read-out: MAGL % inh. 1 μM (human); for IC50: human PC3
# T1 construct: Proteomes (human prefrontal cortex or cell membrane fractions); from tissue
# T1 sequence (Q99685 1-303): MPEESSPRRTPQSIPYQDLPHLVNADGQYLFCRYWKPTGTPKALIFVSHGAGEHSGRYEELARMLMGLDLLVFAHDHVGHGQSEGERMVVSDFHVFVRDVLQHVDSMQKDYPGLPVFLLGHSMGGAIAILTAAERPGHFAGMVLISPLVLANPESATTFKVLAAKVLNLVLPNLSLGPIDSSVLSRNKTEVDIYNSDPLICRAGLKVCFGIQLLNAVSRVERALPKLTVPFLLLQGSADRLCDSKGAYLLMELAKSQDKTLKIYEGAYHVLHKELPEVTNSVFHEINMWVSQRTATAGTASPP
# Outline: (§1)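 Human prefrontal cortex or cell membrane proteomes (1.0-2.0 mg/mL protein) preincubated 30 min at 37° C with inhibitor, then labeled 30 min RT with FP-Rh or JW912 probe. After SDS-PAGE, activity taken from fluorescent band intensity for each enzyme.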
# MAGL [2] = target: T2, MAGL (Mus musculus, UniProt O35678); test: In vitro competitive activity-based protein profiling (mouse), MAGL; assay type: biochemical; conditions: for inhibition at 1 µM: 1 μM inhibitor, mouse brain membrane fraction or cell lysates, read-out: MAGL % inh. 1 μM (mouse); for IC50: mouse proteome
# T2 construct: Proteomes (mouse brain membrane fraction or cell lysates); from tissue; host or cells: mouse brain membrane fraction or cell lysates
# T2 sequence (O35678 1-303): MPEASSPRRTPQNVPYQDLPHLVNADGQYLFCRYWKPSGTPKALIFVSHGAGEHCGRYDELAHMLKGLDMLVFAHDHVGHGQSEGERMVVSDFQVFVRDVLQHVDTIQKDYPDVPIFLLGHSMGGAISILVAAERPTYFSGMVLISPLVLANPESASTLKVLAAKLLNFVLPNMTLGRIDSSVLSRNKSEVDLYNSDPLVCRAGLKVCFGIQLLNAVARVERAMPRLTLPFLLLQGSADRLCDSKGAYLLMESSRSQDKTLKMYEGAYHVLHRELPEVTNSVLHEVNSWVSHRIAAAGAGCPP
# Outline: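 Mouse brain membrane fraction or cell lysate proteomes (50 μL, 1.0 mg/mL total protein) were preincubated with inhibitors at varying concentrations for 30 min at 37° C. FP-Rh (1.0 μL, 50 μM in DMSO) was then added for a further 30 min at 37° C. Samples were quenched with 4× SDS loading buffer and resolved by SDS-PAGE. MAGL activity was quantified from fluorescent gel band intensity using ImageJ 1.49 k.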
# MAGL [3] = target: T2, MAGL; test: Mouse brain proteomes from inhibitor treated mice, MAGL inhibition; assay type: in vivo; conditions: 5 mg/kg oral gavage, C57Bl/6J mouse brain, 4 h following administration; read-out: MAGL % inh. 5 mg/kg (mouse)
# Procedure: Preparation of Mouse Brain Proteomes from Inhibitor Treated Mice.
# Inhibitors were administered to wild-type C57Bl/6J by oral gavage in a vehicle of polyethylene glycol. Each animal was sacrificed 4 h following administration and brain proteomes were prepared and analyzed according to previously established methods (See Niphakis, M. J., et al. (2011) ACS Chem. Neurosci. and Long, J. Z., et al. Nat. Chem. Biol. 5:37-44).
# ABHD6 [4] = target: T3, ABHD6 (Mus musculus, UniProt Q8R2Y0); test: In vitro competitive activity-based protein profiling (mouse), ABHD6; assay type: biochemical; conditions: 1 μM inhibitor, mouse brain membrane fraction or cell lysates; read-out: ABHD6 % inh. 1 μM (mouse)
# T3 construct: Proteomes (mouse brain membrane fraction or cell lysates); from tissue; host or cells: mouse brain membrane fraction or cell lysates
# T3 sequence (Q8R2Y0 1-336): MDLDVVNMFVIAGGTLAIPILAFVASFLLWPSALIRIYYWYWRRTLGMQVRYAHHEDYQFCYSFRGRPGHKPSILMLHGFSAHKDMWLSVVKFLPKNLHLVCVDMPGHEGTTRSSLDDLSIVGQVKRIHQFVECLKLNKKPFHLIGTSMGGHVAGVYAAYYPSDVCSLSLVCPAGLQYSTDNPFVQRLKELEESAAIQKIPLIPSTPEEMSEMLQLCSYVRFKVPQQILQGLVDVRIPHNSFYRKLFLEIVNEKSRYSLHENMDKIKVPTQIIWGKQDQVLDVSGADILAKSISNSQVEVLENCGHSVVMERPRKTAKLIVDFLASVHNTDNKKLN
# Outline: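 Mouse brain membrane proteome or cell lysate (1.0 mg/mL protein) preincubated 30 min at 37 °C with inhibitor, then labelled 30 min at 37 °C with FP-rhodamine probe. Remaining MAGL and ABHD6 activity quantified by in-gel fluorescence band intensity after SDS-PAGE; values are % inhibition at 1 μM.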
# ABHD6 [5] = target: T4, ABHD6 (Homo sapiens, UniProt Q9BV23); test: In vitro competitive activity-based protein profiling (human), ABHD6; assay type: biochemical; conditions: human PC3
# T4 construct: Proteomes (human prefrontal cortex or cell membrane fractions); endogenous in cells; human prefrontal cortex
# T4 sequence (Q9BV23 1-337): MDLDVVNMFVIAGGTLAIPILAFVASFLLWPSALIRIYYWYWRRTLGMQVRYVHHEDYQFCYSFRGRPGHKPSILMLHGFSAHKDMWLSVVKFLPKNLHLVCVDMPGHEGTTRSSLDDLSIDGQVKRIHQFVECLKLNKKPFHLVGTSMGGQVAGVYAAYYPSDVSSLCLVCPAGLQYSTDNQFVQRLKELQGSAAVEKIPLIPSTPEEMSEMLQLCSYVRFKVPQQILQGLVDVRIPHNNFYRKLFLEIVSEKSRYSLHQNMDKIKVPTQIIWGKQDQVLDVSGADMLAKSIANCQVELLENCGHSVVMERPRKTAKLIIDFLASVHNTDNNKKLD
# Outline: as §1
SMILES,inhibition at 1 µM (MAGL [1]),IC50 (MAGL [1]),inhibition at 1 µM (MAGL [2]),inhibition at 5 mg/kg (MAGL [3]),inhibition at 1 µM (ABHD6 [4]),IC50 (ABHD6 [5]),IC50 (MAGL [2])
"CC1(C(=O)O)CCN(c2cc(C(F)(F)F)ccc2CN2CCN(C(=O)OC(C(F)(F)F)C(F)(F)F)CC2)C1 (stereo not shown) [Example 55, 1-{2-[(4-{[(1,1,1,3,3,3-hexafluoropropan-2-yl)oxy]carbonyl}piperazin-1-yl)methyl]-5-(trifluoromethyl)phenyl}-3-methylpyrrolidin-3-carboxylic acid]",≥ 75%,≤ 0.1 µM,≥ 75%,25 to 50%,≥ 75%,0.1 to 1 µM,
"O=C(OC(C(F)(F)F)C(F)(F)F)N1CCN(Cc2ccc(C(F)(F)F)cc2C2(C(=O)O)CCOCC2)CC1 [Example 45, 4-(2-((4-(((1,1,1,3,3,3-hexafluoropropan-2-yl)oxy)carbonyl)piperazin-1-yl)methyl)-5-(trifluoromethyl)phenyl)tetrahydro-2H-pyran-4-carboxylic acid]",≥ 75%,≤ 0.1 µM,≥ 75%,≥ 75%,0 to 25%,1 to 10 µM,
"Cc1ccc(CN2CCN(C(=O)OC(C(F)(F)F)C(F)(F)F)CC2)c(N2CCC(C(=O)O)CC2)c1F [Example 59, 1-(2-fluoro-6-((4-(((1,1,1,3,3,3-hexafluoropropan-2-yl)oxy)carbonyl)piperazin-1-yl)methyl)-3-methylphenyl)piperidine-4-carboxylic acid]",≥ 75%,≤ 0.1 µM,≥ 75%,≥ 75%,≥ 75%,1 to 10 µM,
"O=C(OC(C(F)(F)F)C(F)(F)F)N1CCN(Cc2ccc(C(F)(F)F)cc2C2(C(=O)O)CCCC2)CC1 [Example 4, 1-(2-((4-(((1,1,1,3,3,3-Hexafluoropropan-2-yl)oxy)carbonyl)piperazin-1-yl)methyl)-5-(trifluoromethyl)phenyl)cyclopentane-1-carboxylic Acid]",≥ 75%,≤ 0.1 µM,≥ 75%,≥ 75%,0 to 25%,1 to 10 µM,≤ 0.1 µM
"O=C(OC(C(F)(F)F)C(F)(F)F)N1CCN(Cc2cccc(Cl)c2C2(C(=O)O)CCCC2)CC1 [Example 44, 1-(2-chloro-6-((4-(((1,1,1,3,3,3-hexafluoropropan-2-yl)oxy)carbonyl)piperazin1-yl)methyl)phenyl)cyclopentane-1-carboxylic acid]",,≤ 0.1 µM,≥ 75%,≥ 75%,50 to 75%,1 to 10 µM,
"O=C(O)Cn1ccc(-c2cc(F)ccc2CN2CCN(C(=O)OC(C(F)(F)F)C(F)(F)F)CC2)n1 [Example 13, 2-(3-(5-Fluoro-2-((4-(((1,1,1,3,3,3-hexafluoropropan-2-yl)oxy)carbonyl)piperazin-1-yl)methyl)phenyl)-1H-pyrazol-1-yl)acetic Acid]",≥ 75%,≤ 0.1 µM,≥ 75%,0 to 25%,0 to 25%,1 to 10 µM,
"O=C(O)CC1CCN(c2cc(C(F)(F)F)ccc2CN2CCN(C(=O)OC(C(F)(F)F)C(F)(F)F)CC2)CC1 [Example 43, 2-(1-(2-((4-(((1,1,1,3,3,3-hexafluoropropan-2-yl)oxy)carbonyl)piperazin-1-yl)methyl)-5-(trifluoromethyl)phenyl)piperidin-4-yl)acetic acid]",≥ 75%,≤ 0.1 µM,≥ 75%,≥ 75%,≥ 75%,1 to 10 µM,
"O=C(OC(C(F)(F)F)C(F)(F)F)N1CCN(Cc2ccc(C(F)F)cc2C2(C(=O)O)CCCC2)CC1 [Example 27, 1-(5-(Difluoromethyl)-2-((4-(((1,1,1,3,3,3-hexafluoropropan-2-yl)oxy)carbonyl)piperazin-1-yl)methyl)phenyl)cyclopentane-1-carboxylic Acid]",≥ 75%,≤ 0.1 µM,≥ 75%,≥ 75%,0 to 25%,1 to 10 µM,
"O=C(O)CN1CCC2(CC1)CCN(c1cc(C(F)(F)F)ccc1CN1CCN(C(=O)OC(C(F)(F)F)C(F)(F)F)CC1)C2 [Example 19, 2-(2-(2-((4-(((1,1,1,3,3,3-Hexafluoropropan-2-yl)oxy)carbonyl)piperazin-1-yl)methyl)-5-(trifluoromethyl)phenyl)-2,8-diazaspiro[4.5]decan-8-yl)acetic Acid]",≥ 75%,≤ 0.1 µM,≥ 75%,0 to 25%,0 to 25%,1 to 10 µM,≤ 0.1 µM
"O=C(O)CN1CC2CC1CN2c1cc(C(F)(F)F)ccc1CN1CCN(C(=O)OC(C(F)(F)F)C(F)(F)F)CC1 (stereo not shown) [Example 25, 2-(5-(2-((4-(((1,1,1,3,3,3-Hexafluoropropan-2-yl)oxy)carbonyl)piperazin-1-yl)methyl)-5-(trifluoromethyl)phenyl)-2,5-diazabicyclo[2.2.1]heptan-2-yl)acetic Acid]",≥ 75%,≤ 0.1 µM,≥ 75%,0 to 25%,0 to 25%,1 to 10 µM,
"O=C(O)c1ccsc1-c1cc(C(F)(F)F)ccc1CN1CCN(C(=O)OC(C(F)(F)F)C(F)(F)F)CC1 [Example 8, 2-(2-((4-(((1,1,1,3,3,3-Hexafluoropropan-2-yl)oxy)carbonyl)piperazin-1-yl)methyl)-5-(trifluoromethyl)phenyl)thiophene-3-carboxylic Acid]",≥ 75%,≤ 0.1 µM,≥ 75%,≥ 75%,25 to 50%,1 to 10 µM,
"CCC(C(=O)O)n1cc(-c2cc(C(F)(F)F)ccc2CN2CCN(C(=O)OC(C(F)(F)F)C(F)(F)F)CC2)cn1 (stereo not shown) [Example 5, 2-(4-(2-((4-(((1,1,1,3,3,3-Hexafluoropropan-2-yl)oxy)carbonyl)piperazin-1-yl)methyl)-5-(trifluoromethyl)phenyl)-1H-pyrazol-1-yl)butanoic Acid]",≥ 75%,≤ 0.1 µM,≥ 75%,0 to 25%,≥ 75%,0.1 to 1 µM,

# Source: patent US10899737B2, “Piperazine carbamates and methods of making and using same” (Lundbeck La Jolla Research Center, Inc., priority 2016, dated 2021)
